Results published in patent US10782295B2, “Cysteine-reactive ligand discovery in proteomes” (THE SCRIPPS RESEARCH INSTITUTE, priority 2013, dated 2020).

Legend:
Test in all cases: competitive isoTOP-ABPP, MDA-MB-231 soluble proteome
AHSG = type: binding, human; conditions: 100 μM LDE, 60 min; peptide C*DSSPDSAEDVR
Procedure: Here, we envisioned that isoTOP-ABPP could be advanced to discover and quantify reactions between cysteines in proteomes and any electrophilic compound. In this advanced, ‘competitive’ version of isoTOP-ABPP (FIG. 1a), a proteome is treated with an electrophile (experimental sample) or DMSO (control sample). Both proteomic samples are then labeled with the IA probe and conjugated by CuAAC to light and heavy azide-biotin tags, respectively. The light and heavy samples are then mixed and subjected to our described isoTOP-ABPP protocol for enrichment, identification, and quantification of IA-labeled cysteines^30. Electrophile-modified cysteines are quantified by measuring the MS1 chromatographic peak ratios (R values) for heavy (DMSO-treated) over light (electrophile-treated) samples, with higher R values reflecting greater sensitivity to the electrophile. In this format, competitive isoTOP-ABPP can assay electrophiles against 1000+ cysteines in parallel directly in native proteomes without requiring any chemical modification to the electrophiles themselves.
Competitive isoTOP-ABPP experiments were performed in quadruplicate using the soluble proteome of the human breast cancer cell line MDA-MB-231 cell line. Proteomes were treated with 100 μM HNE, 15d-PGJ2, or 2-HD, for 60 minutes, followed by the IA-probe (100 μM, 60 min) A total of ˜1400 cysteine reactivities were quantified across the aggregate data set, with at least 900 cysteine reactivities quantified for each LDE (FIG. 2a) more than 750 of which were quantified for all the three electrophiles.
HNE was purchased from EMD biosciences, 15d-PGJ2 was purchased from Cayman Chemicals and 2-HD was purchased from Santa Cruz Biotechnology. Proteome samples were diluted to a 4 mg protein/mL solution in PBS. […]
IA-probe labeled peptides were identified by SEQUEST2 and DTASelect3, and the quantification of heavy/light ratios (isoTOP-ABPP ratios, R) was performed by an in-house software (CIMAGE) as previously described. […]

IDH1 = target: T1, IDH1 (Homo sapiens, UniProt O75874); type: binding; conditions: 100 μM LDE, 60 min; peptide SEGGFIWAC*K
T1 construct: directly in native proteomes; endogenous in cells; host or cells: MDA-MB-231
T1 sequence (O75874 whole entry): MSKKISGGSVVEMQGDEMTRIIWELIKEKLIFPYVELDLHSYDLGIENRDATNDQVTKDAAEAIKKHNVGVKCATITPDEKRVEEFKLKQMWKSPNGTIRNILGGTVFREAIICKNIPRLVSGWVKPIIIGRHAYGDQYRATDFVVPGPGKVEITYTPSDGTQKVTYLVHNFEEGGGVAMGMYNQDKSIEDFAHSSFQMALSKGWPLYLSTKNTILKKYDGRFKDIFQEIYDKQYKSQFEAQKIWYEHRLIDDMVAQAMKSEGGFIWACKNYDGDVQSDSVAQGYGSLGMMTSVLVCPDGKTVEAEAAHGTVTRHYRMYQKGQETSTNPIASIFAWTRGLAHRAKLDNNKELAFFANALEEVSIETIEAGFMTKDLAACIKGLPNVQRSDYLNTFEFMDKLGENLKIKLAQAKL

MMS19 = target: T2, MMS19 (Homo sapiens, UniProt Q96T76); type: binding; conditions: 60 min; for R value (isoTOP-ABPP ratio heavy/light) for IA-labeled cysteine of MMS19: 100 μM LDE, peptide LMGLLSDPELGPAAADGFSLLMSDC*TDVLTR
T2 construct: directly in native proteomes; endogenous in cells; host or cells: MDA-MB-231
T2 sequence (Q96T76 1-1030): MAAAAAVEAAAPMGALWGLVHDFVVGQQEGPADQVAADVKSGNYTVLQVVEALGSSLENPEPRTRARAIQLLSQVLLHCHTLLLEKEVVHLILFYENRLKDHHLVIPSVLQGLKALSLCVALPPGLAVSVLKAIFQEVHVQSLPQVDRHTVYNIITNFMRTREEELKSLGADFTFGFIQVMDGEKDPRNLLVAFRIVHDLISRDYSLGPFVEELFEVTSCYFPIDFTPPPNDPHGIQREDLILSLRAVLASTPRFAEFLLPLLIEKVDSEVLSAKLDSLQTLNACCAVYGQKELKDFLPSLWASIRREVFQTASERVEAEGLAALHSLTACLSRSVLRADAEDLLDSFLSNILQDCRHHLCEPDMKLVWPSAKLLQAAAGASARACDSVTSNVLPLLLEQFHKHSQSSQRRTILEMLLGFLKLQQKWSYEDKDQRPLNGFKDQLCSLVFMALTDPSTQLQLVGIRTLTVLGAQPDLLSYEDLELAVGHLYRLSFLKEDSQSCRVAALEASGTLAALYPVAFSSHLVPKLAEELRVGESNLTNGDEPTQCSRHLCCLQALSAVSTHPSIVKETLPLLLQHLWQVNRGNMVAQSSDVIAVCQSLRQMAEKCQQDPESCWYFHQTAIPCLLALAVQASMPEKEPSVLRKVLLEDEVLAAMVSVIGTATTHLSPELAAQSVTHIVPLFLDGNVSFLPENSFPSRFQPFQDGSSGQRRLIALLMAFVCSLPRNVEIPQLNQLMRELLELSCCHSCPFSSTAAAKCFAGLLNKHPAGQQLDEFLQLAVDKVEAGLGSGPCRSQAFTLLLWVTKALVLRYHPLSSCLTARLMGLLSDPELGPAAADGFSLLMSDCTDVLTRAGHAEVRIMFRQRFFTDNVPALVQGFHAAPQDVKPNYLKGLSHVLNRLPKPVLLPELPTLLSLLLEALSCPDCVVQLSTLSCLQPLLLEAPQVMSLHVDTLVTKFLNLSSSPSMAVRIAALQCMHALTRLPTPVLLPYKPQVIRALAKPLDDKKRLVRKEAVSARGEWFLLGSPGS

For `CCCCCCCCCCCCC/C=C/C=O` [2-HD, 2-trans-hexadecenal], the “R value (isoTOP-ABPP ratio heavy/light) for IA-labeled cysteine of AHSG” value (AHSG) was 1.12, the “R value (isoTOP-ABPP ratio heavy/light) for IA-labeled cysteine of IDH1” value (IDH1) was 1.13 and the “R value (isoTOP-ABPP ratio heavy/light) for IA-labeled cysteine of MMS19” value (MMS19) was 1.1.

`CCCCCC(O)/C=C/C=O` (stereo not shown) [4-HNE, 4-Hydroxynonenal] was tested, and the “R value (isoTOP-ABPP ratio heavy/light) for IA-labeled cysteine of AHSG” value (AHSG) was 1.35, the “R value (isoTOP-ABPP ratio heavy/light) for IA-labeled cysteine of IDH1” value (IDH1) was 1.3 and the “R value (isoTOP-ABPP ratio heavy/light) for IA-labeled cysteine of MMS19” value (MMS19) was 1.78.

With `CCCCC/C=C/C=C1/C(=O)C=C[C@@H]1C/C=C\CCCC(=O)O` [PGJ2, 15-deoxy-Δ12,14-prostaglandin J2] the “R value (isoTOP-ABPP ratio heavy/light) for IA-labeled cysteine of AHSG” value (AHSG) was 5.73, the “R value (isoTOP-ABPP ratio heavy/light) for IA-labeled cysteine of IDH1” value (IDH1) was 6.66 and the “R value (isoTOP-ABPP ratio heavy/light) for IA-labeled cysteine of MMS19” value (MMS19) was over 15. The “blockade of IA-probe labeling of Cys848 of MMS19” value (MMS19; 100 μM) was “completely blocked”.
